From EP2809669B1, “FUSED PYRROLEDICARBOXAMIDES AND THEIR USE AS PHARMACEUTICALS” (SANOFI, priority 2012, dated 2013)
Read-outs that look alike come from different tables or passages of the source.

Experiments:
hERG channel = biological target: T1, hERG channel (Homo sapiens, UniProt Q12809); assay: Determination of the effect on the hERG channel in CHO cells (whole-cell patch clamp); type: cell-based; settings: CHO cells stably expressing hERG, room temperature, read-out: IC50 value [µM] for hERG inhibition
T1 construct: expressed in transfected cells
Protocol: Determination of the effect on the hERG channel in CHO cells
An inhibition of the hERG (human Ether-a-go-go-Related Gene) potassium channel is unwanted because it can lead to dangerous arrhythmias. The effect of compounds of the formula I on the cloned human cardiac hERG channel was evaluated in an in vitro model using a whole-cell patch-clamping technique. CHO (Chinese hamster ovary) cells stably expressing hERG, the potassium channel underlying IKr currents in human hearts, were grown in HAM's F-12 media supplemented with 10 % fetal bovine serum, 1 x penicillin/streptomycin and 500 µg/ml G418 (Invitrogen, Carlsbad, CA, USA) in an atmosphere of 95 % air and 5 % carbon dioxide. Cells used for patch-clamping were seeded on glass or plastic coverslips 12 to 36 hours before use. hERG channel currents were recorded at room temperature using the whole-cell configuration of the patch clamp technique with an Axopatch 200B amplifier (Axon Instruments, Foster City, CA, USA). Briefly, electrodes (3 to 6 MΩ resistance) were fashioned from TW150F glass capillary tubes (World Precision Instruments, Sarasota, FL, USA) and filled with pipette solution (containing 120 mM potassium aspartate, 20 mM potassium chloride, 4 mM adenosine triphosphate disodium salt, 5 mM HEPES, 1 mM magnesium chloride; pH adjusted to 7.2 with potassium hydroxide). hERG currents were initiated by a positive voltage pulse (20 mV) followed by a negative pulse (-40 mV) and were recorded for off-line analyses. Once hERG current from a cell perfused with external solution (containing 130 mM sodium chloride, 5 mM potassium chloride, 2.8 mM sodium acetate, 1 mM magnesium chloride, 10 mM HEPES, 10 mM glucose, 1 mM calcium chloride; pH adjusted to 7.4 with sodium hydroxide) without the test compound, i.e. control solution, was stabilized, the cell was perfused with external solution containing the test compound at specific concentrations. For each concentration from each cell, peak amplitude of the steady-state hERG tail current at -40 mV was measured in picoAmpere (pA). The peak amplitude in pA for each concentration (up to a maximum concentration of 10 µM) was compared with that for the control solution from the same cell and expressed as percent value of the control. From the percent values at multiple concentrations, IC50 values for inhibition of hERG can be determined.

[1] = tested on: atrium of the anesthetized pig; assay: Investigation of the refractory period and the left-atrial vulnerability in the anesthetized pig; type: in vivo; settings: Sus scrofa, iv; for inhibition in vivo at 0.3 mg/kg / change in vivo at 0.3 mg/kg: 0.3 mg/kg i.v.
Protocol: Investigation of the refractory period and the left-atrial vulnerability in the pig
The compounds were tested for prolongation of the refractory period and antiarrhythmic activity on the atrium of the anesthetized pig as described in Knobloch K. et al., Naunyn-Schmiedeberg's Arch. Pharmacol. 2002, 366, 482-487. Here the anti-arrhythmic action relates to the inhibition of the occurrence of episodes of atrial arrhythmias which are induced by a prematurely placed extra-stimulus (S2) in the left atrium (= left-atrial vulnerability). The prolongation of the refractory period (refractoriness) is expressed as the increase in percent of the value of the refractory period 15 min after the end of administration of the test compound vs. the basal value before administration. Mean values of the prolongation of the refractory period are shown from three rates (150/min, 200/min and 250/min). The values for the inhibition of left atrial vulnerability (inhibition of episodes of arrhythmias) in percent refer to three measurements (three time points) before administration of the test compound vs. at least three measurements during the first hour after administration.
In Table 16, the action of compounds of the formula I from the examples above on the refractory period of the left atrium and their antiarrhythmic activity in the anesthetized pig after intravenous (i.v.) administration of the described dose is shown.

[2] = infusion over 1 h, first hour after administration vs. before
[3] = 0.25 h, infusion over 1 h, 15 min after end of administration vs. basal value, mean of three rates (150/min, 200/min, 250/min), read-out: % Prolongation of left atrial refractory period
[4] = 0.25 h, bolus injection, 15 min after end of administration vs. basal value, mean of three rates (150/min, 200/min, 250/min), read-out: % Prolongation of left atrial refractory period
[5] = 1 h, bolus injection, first hour after administration vs. before

T1 sequence (Q12809 whole entry): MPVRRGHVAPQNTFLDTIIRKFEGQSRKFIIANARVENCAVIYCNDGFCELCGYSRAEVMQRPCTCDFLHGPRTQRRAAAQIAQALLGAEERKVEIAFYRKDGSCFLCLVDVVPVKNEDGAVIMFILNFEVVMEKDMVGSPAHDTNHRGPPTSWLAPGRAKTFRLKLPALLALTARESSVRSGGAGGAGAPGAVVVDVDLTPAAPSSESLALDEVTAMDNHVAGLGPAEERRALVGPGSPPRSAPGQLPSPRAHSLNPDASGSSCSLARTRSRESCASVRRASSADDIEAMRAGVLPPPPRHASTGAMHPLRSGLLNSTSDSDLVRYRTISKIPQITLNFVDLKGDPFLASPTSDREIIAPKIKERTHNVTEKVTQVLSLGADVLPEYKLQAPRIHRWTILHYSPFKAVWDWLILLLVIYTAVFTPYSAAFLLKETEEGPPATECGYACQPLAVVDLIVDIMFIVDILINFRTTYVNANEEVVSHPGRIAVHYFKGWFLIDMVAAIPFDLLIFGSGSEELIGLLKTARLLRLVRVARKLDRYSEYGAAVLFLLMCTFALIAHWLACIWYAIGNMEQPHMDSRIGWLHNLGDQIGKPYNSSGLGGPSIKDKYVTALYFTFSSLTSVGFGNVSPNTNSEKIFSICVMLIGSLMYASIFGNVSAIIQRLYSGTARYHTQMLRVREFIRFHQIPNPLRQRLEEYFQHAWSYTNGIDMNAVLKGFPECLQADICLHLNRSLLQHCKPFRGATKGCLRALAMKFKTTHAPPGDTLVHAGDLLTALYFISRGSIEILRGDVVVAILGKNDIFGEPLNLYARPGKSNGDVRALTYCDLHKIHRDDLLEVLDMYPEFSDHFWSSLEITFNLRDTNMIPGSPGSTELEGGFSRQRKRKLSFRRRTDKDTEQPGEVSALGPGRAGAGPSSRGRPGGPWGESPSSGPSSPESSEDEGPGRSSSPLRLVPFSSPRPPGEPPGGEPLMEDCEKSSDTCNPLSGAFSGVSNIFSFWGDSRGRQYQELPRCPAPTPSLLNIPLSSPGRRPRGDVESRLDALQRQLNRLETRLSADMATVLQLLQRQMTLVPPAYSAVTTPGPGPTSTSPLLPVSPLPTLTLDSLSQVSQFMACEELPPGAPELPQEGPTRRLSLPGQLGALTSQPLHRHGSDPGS

Row | Structure (SMILES) | IC50 (hERG channel) [µM] | change in vivo at 0.3 mg/kg [1, 4] [%] | inhibition in vivo at 0.3 mg/kg [1, 5] [%] | further results
1 | CC[C@@H](NC(=O)c1cc(C(=O)N2CCC[C@@H]2C)n2c1COCC2)c1ccccc1 [16a, 6-((S)-2-Methyl-pyrrolidine-1-carbonyl)-3,4-dihydro-1H-pyrrolo[2,1-c][1,4]oxazine-8-carboxylic acid ((R)-1-phenyl-propyl)-amide] | > 10 |  |  | inhibition in vivo at 0.3 mg/kg [1, 2]: 91%; change in vivo at 0.3 mg/kg [1, 3]: 40%
2 | CC[C@@H](NC(=O)c1cc(C(=O)N2CCC[C@@H]2C)n2c1COCC2)c1cnc(OC)c(Cl)c1 [16b, 6-((S)-2-Methyl-pyrrolidine-1-carbonyl)-3,4-dihydro-1H-pyrrolo[2,1-c][1,4]oxazine-8-carboxylic acid [(R)-1-(5-chloro-6-methoxy-pyridin-3-yl)-propyl]-amide] | > 10 | 21 | 91 | 
3 | CC[C@@H](NC(=O)c1cc(C(=O)N2CCC[C@@H]2C)n2c1COCC2)c1ccc(C(F)(F)F)c(Cl)c1 [16c, 6-((S)-2-Methyl-pyrrolidine-1-carbonyl)-3,4-dihydro-1H-pyrrolo[2,1-c][1,4]oxazine-8-carboxylic acid [(R)-1-(3-chloro-4-trifluoromethyl-phenyl)-propyl]-amide] | > 10 |  |  | change in vivo at 0.03 mg/kg ([1]; 0.25 h, 0.03 mg/kg i.v., bolus injection, 15 min after end of administration vs. basal value, mean of three rates (150/min, 200/min, 250/min), read-out: % Prolongation of left atrial refractory period): 12%; inhibition in vivo at 0.03 mg/kg ([1]; 1 h, 0.03 mg/kg i.v., bolus injection, first hour after administration vs. before): 65%
4 | CC[C@@H](NC(=O)c1cc(C(=O)N2CCC[C@@H]2C)n2c1COCC2)c1ccc(Cl)c(Cl)c1 [16ci, 6-((S)-2-Methyl-pyrrolidine-1-carbonyl)-3,4-dihydro-1H-pyrrolo[2,1-c][1,4]oxazine-8-carboxylic acid [(R)-1-(3,4-dichloro-phenyl)-propyl]-amide] | ~10 |  |  | 
5 | CC[C@@H](NC(=O)c1cc(C(=O)N2CCC[C@@H]2C)n2c1COCC2)c1ccc(C#N)c(Cl)c1 [16d, 6-((S)-2-Methyl-pyrrolidine-1-carbonyl)-3,4-dihydro-1H-pyrrolo[2,1-c][1,4]oxazine-8-carboxylic acid [(R)-1-(3-chloro-4-cyano-phenyl)-propyl]-amide] | > 10 | 24 | 100 | 
6 | CC[C@@H](NC(=O)c1cc(C(=O)N2CCC[C@@H]2C)n2c1COCC2)c1ccc(C(F)(F)F)nc1 [16e, 6-((S)-2-methyl-pyrrolidine-1-carbonyl)-3,4-dihydro-1H-pyrrolo[2,1-c][1,4]oxazine-8-carboxylic acid [(R)-1-(6-trifluoromethyl-pyridin-3-yl)-propyl]-amide] | > 10 |  |  | inhibition in vivo at 0.3 mg/kg [1, 2]: 84%; change in vivo at 0.3 mg/kg [1, 3]: 38%
7 | CC[C@@H](NC(=O)c1cc(C(=O)N[C@H](C)c2ccc(F)cc2)n2c1COCC2)c1ccc(C(F)(F)F)cc1 [16eb, 3,4-Dihydro-1H-pyrrolo[2,1-c][1,4]oxazine-6,8-dicarboxylic acid 6-{[(R)-1-(4-fluoro-phenyl)-ethyl]-amide} 8-{[(R)-1-(4-trifluoromethyl-phenyl)-propyl]-amide}] | > 1 |  |  | 
8 | CC[C@@H](NC(=O)c1cc(C(=O)N2CCC[C@@H]2C)n2c1COCC2)c1ccc(C(F)(F)F)cc1 [16f, 6-((S)-2-Methyl-pyrrolidine-1-carbonyl)-3,4-dihydro-1H-pyrrolo[2,1-c][1,4]oxazine-8-carboxylic acid [(R)-1-(4-trifluoromethyl-phenyl)-propyl]-amide] |  |  |  | change in vivo at 1 mg/kg ([1]; 0.25 h, 1.0 mg/kg i.v., bolus injection, 15 min after end of administration vs. basal value, mean of three rates (150/min, 200/min, 250/min), read-out: % Prolongation of left atrial refractory period): 19%; inhibition in vivo at 1 mg/kg ([1]; 1 h, 1.0 mg/kg i.v., bolus injection, first hour after administration vs. before): 73%
9 | CC[C@@H](NC(=O)c1cc(C(=O)N[C@H](C)c2ccc(F)cc2)n2c1COCC2)c1ccc(C(F)(F)F)nc1 [16g, 3,4-Dihydro-1H-pyrrolo[2,1-c][1,4]oxazine-6,8-dicarboxylic acid 6-{[(R)-1-(4-fluorophenyl)-ethyl]-amide}8-{[(R)-1-(6-trifluoromethyl-pyridin-3-yl)-propyl]-amide}] | > 10 |  |  | 
10 | CC[C@@H](NC(=O)c1cc(C(=O)N2CCC[C@@H]2C(F)(F)F)n2c1COCC2)c1ccc(C(F)(F)F)nc1 [16o, 6-((R)-2-Trifluoromethyl-pyrrolidine-1-carbonyl)-3,4-dihydro-1H-pyrrolo[2,1-c][1,4]oxazine-8-carboxylic acid [(R)-1-(6-trifluoromethyl-pyridin-3-yl)-propyl]-amide] |  | 45 | 71 | 
